Results reported in patent US20160045487A1, “COMPOSITIONS AND METHODS FOR TREATING NEUROPATHY” (CHILDEREN'S MEDICAL CENTER CORPORATION, priority 2013, published 2016).

What was measured:
Type in all cases: in vivo, mouse
GFAP-DN-erbB4 mice [1] = assay: PGP9.5-positive IENF density in hind paw skin; details: treatment initiated after disease onset (P28), read at P35
Protocol: (§1) However, in the clinic, therapy would almost certainly begin after patients present with symptoms of SFN. Therefore, it was determined whether topical XIB4035 can act as a disease-modifying agent in the GFAP-DN-erbB4 neuropathy model starting after animals are clearly symptomatic (P28). […] While IB4 labeling in mutant mice was lower than wild types regardless of treatment, IB4 signal was clearly present in mutant mice treated with XIB4035 while absent in those treated with control cream (FIG. 3D; 83% of XIB4035 treated mice (n=6) with IB4+ lamina II terminals vs 0% (n=4) in control treated mice) (FIG. 3D).
Mice were anesthetized with 2.5% Avertin. Hind paws were removed, immersion fixed in 2% paraformaldehyde, 14% picric acid in 0.1 M phosphate buffer (pH 7.4) overnight at 4° C., and cryoprotected in 20% sucrose overnight at 4° C. Footpad skin was dissected from hind paws, embedded in OCT, sectioned at 30 μm, and stained as floating sections. […]
Skin section images were acquired as 30 μm Z-stacks (1 μm intervals) and processed as maximum intensity projections using a Zeiss LSM 700 microscope and ZEN software. […] A measured line was drawn using the DAPI channel to delineate the border between basal keratinocytes and outer layers of the epidermis. All PGP9.5 positive IENFs crossing the border were counted and expressed as a number per 100 μm length. […]

[2] = tested on: diabetic mice (STZ model); assay: Nerve conduction velocity in sciatic nerves of STZ diabetic mice; details: cream from hyperglycemia for 16 weeks
Protocol: To examine NCV, normo-glycemic or diabetic mice (STZ model, as described elsewhere herein) were treated with either vehicle cream or with cream containing XIB4035 from the moment they became hyperglycemic, for 16 weeks. At the end of this period, nerve conduction velocity (NCV) was measured in sciatic nerves.
Adult female C57 Bl/6J mice were made diabetic (blood glucose >15 mmol/L) by injection of STZ (90 mg/kg i.p.) on two consecutive days, with confirmation of hyperglycemia made 7 days after STZ delivery. Paw thermal response latency of the right paw was measured every two weeks from weeks 8-16 of diabetes using a modified Hargeaves test, as described

GFAP-DN-erbB4 mice [3] = assay: IB4 staining of C-fiber terminals in lamina II of spinal cord dorsal horn; details: cream P28-P35; n=6
Protocol: as §1
Spinal cords were collected from mice anesthetized with 2.5% Avertin, immersion fixed in 4% paraformaldehyde in 0.1 M phosphate buffer (pH 7.4) for 2 hours at 4° C., and cryoprotected in 20% sucrose overnight at 4° C. Tissue was embedded in OCT, sectioned at 15 μm, and stained mounted on slides. Tissue was blocked for 30 minutes in 0.1M PB+0.3% Triton-X 100+10% normal goat serum and incubated with TrpV1 rabbit polyclonal antibody (AbCAM, 1:2000) and Alexa-488 conjugated isolectin-B4 overnight at 4° C. Sections were washed 3 times for 30 minutes in 0.1M PB+0.3% Triton-X 100+10% normal goat serum followed by incubation with goat anti-rabbit Alexa-594 (Invitrogen) 1:1000 for 1 hour at room temperature.
Spinal cord images were acquired using a Zeiss Axioscope microscope. […]

GFAP-DN-erbB4 mice [4] = assay: Electron microscopy of sciatic nerve Remak bundles, GFAP-DN-erbB4 mice
Protocol: As a first test, a cream containing XIB4035 (1.5 mM) was applied directly to the hind paws of GFAP-DN-erbB4 and wild type mice twice daily for a period of 4 weeks starting prior to symptom onset (P21). Mice of both genotypes were also treated with the base cream containing no drug for control. Mice were tested for responses to a noxious thermal stimulus prior to the initiation of treatment and every 7 days for the duration of the experiment.
The cream containing XIB4035 (1.5 mM, ZereneX Molecular Ltd., Manchester, UK) consisted of N-methyl-pyrrolidone (6.25%), isopropyl myristate (6.25%) and petroleum jelly (87.5%). Control cream had the same ingredients without XIB4035. Cream was applied twice daily to the hind paws of mice starting at P21 for a period of 4 weeks for prophylactic treatment of GFAP-DN-erbB4. Diabetic mice were treated twice daily for 8 weeks after streptozotocin (STZ) injection prior to onset of hyperglycemia and for another 8 weeks during neuropathy testing. Cream treatment in therapeutic studies using GFAP-DN-erbB4 mice was performed twice daily beginning after onset of SFN at P28 and either continued for 5 weeks (chronic treatment) or 1 week (acute treatment).
Tissue was prepared as in (Lacomis, supra). Briefly, mice were perfused intracardially with 2% paraformaldehyde, 2.5% gluteraldehyde and 0.03% picric acid in 0.1 M cacodylate buffer (pH 7.2). Tissue was post-fixed overnight at 4° C. and embedded in Epon. Ultrathin sections were cut, collected on cellodin-coated grids and stained using uranyl acetate and lead citrate. Photographs were taken using the Tecnai G2 Spirit BioTWIN transmission electron microscope.

[5] = GFAP-DN-erbB4 mice, XIB4035 cream 4 weeks

Which results are given for CCN(CC)CCCC(C)Nc1cc(/C=C/c2ccccc2Cl)nc2cc(Cl)ccc12 (stereo not drawn) [XIB4035, N4-{7-chloro-2-[(E)-2-(2-chloro-phenyl)-vinyl]-quinolin-4-yl}-N1,N1-diethyl-pentane-1,4-diamine]?
IENF density in hind paw skin (GFAP-DN-erbB4 mice [1]): did not rescue IENF density; nerve conduction velocity (NCV) in sciatic nerves [2]: not statistically different from that observed in control animals; treated mice with IB4+ lamina II terminals (GFAP-DN-erbB4 mice [3]): 83%; c-fiber area (GFAP-DN-erbB4 mice [4]; [5]): 1.64 ± 0.07 µm²; c-fibers/Remak bundle (GFAP-DN-erbB4 mice [4]; [5]): 8.40 ± 0.83; degeneration of Remak bundles and C-fiber axons (GFAP-DN-erbB4 mice [4]; cream 1.5 mM twice daily P21-P49, sciatic nerve EM): prevented the degeneration of Remak bundles and C-fiber axons
